Results published in patent US10654832B2, “3-(benzoimidazol-2-YL)-indazole inhibitors of the Wnt signaling pathway and therapeutic uses thereof” (Samumed, LLC, priority 2013, dated 2020).

Tested on: Wnt activity (wnt-responsive SP5 promoter luciferase reporter in SW480 cells)
Assay: Wnt activity reporter assay (SP5 promoter-firefly luciferase in SW480 cells)
Type: cell-based
Conditions: Homo sapiens; SW480 colon cancer cells with SP5 promoter luciferase reporter; 24 h after compound addition; half-log dilutions, three micromolar top concentration; normalized to DMSO; read-out: Wnt inhibition
Method in brief: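 SW480 cells (APC-mutant) stably carried a lentiviral SP5-promoter (eight TCF/LEF sites) firefly luciferase reporter. Signals were normalized to DMSO-only cells to derive IC50.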

With `c1ccc(CNCc2cncc(-c3ccc4[nH]nc(-c5nc6ccccc6[nH]5)c4c3)c2)cc1` [Compound 239, 1-(5-(3-(1H-Benzo[d]imidazol-2-yl)-1H-indazol-5-yl)pyridin-3-yl)-N-benzylmethanamine] as the molecule, how does the IC50 read?
Its IC50 is 372 nM.

`CCNCc1cncc(-c2ccc3[nH]nc(-c4nc5c(-c6ccsc6)cccc5[nH]4)c3c2)c1` [Compound 246, N-((5-(3-(4-(Thiophen-3-yl)-1H-benzo[d]imidazol-2-yl)-1H-indazol-5-yl)pyridin-3-yl)methyl)ethanamine] was tested. Which IC50 did it give?
The IC50 was 14 nM.

For `CC(C)C(=O)Nc1cncc(-c2ccc3[nH]nc(-c4nc5c(-c6ccsc6)cccc5[nH]4)c3c2)c1` [Compound 249, N-(5-(3-(4-(Thiophen-3-yl)-1H-benzo[d]imidazol-2-yl)-1H-indazol-5-yl)pyridin-3-yl)isobutyramide], which IC50 is on record?
The IC50 was 13 nM.

For `CN(C)Cc1cncc(-c2ccc3[nH]nc(-c4nc5c(-c6ccsc6)cccc5[nH]4)c3c2)c1` [Compound 253, N,N-Dimethyl-1-(5-(3-(4-(thiophen-3-yl)-1H-benzo[d]imidazol-2-yl)-1H-indazol-5-yl)pyridin-3-yl)methanamine], which IC50 is on record?
The IC50 was 7 nM.

`c1cc(-c2ccsc2)c2nc(-c3n[nH]c4ccc(-c5cncc(CN6CCCC6)c5)cc34)[nH]c2c1` [Compound 254, 5-(5-(Pyrrolidin-1-ylmethyl)pyridin-3-yl)-3-(4-(thiophen-3-yl)-1H-benzo[d]imidazol-2-yl)-1H-indazole] was tested. Which IC50 did it give?
Its IC50 is 2 nM.

With `Nc1cncc(-c2ccc3[nH]nc(-c4nc5c(-c6ccoc6)cccc5[nH]4)c3c2)c1` [Compound 267, 5-(3-(4-(Furan-3-yl)-1H-benzo[d]imidazol-2-yl)-1H-indazol-5-yl) pyridin-3-amine] as the molecule, how does the IC50 read?
The IC50 was ≥ 4150 nM.

`CC(C)(C)C(=O)Nc1cncc(-c2ccc3[nH]nc(-c4nc5c(-c6ccoc6)cccc5[nH]4)c3c2)c1` [Compound 272, N-(5-(3-(4-(Furan-3-yl)-1H-benzo[d]imidazol-2-yl)-1H-indazol-5-yl)pyridin-3-yl)pivalamide] was tested. Which IC50 did it give?
The IC50 was 159 nM.

`CC(C)Nc1cncc(-c2ccc3[nH]nc(-c4nc5c(-c6ccoc6)cccc5[nH]4)c3c2)c1` [Compound 276, 5-(3-(4-(Furan-3-yl)-1H-benzo[d]imidazol-2-yl)-1H-indazol-5-yl)-N-isopropylpyridin-3-amine] was tested. Which IC50 did it give?
The IC50 was 16 nM.

For `c1cc(-c2ccoc2)c2nc(-c3n[nH]c4ccc(-c5cncc(CN6CCCCC6)c5)cc34)[nH]c2c1` [Compound 279, 3-(4-(Furan-3-yl)-1H-benzo[d]imidazol-2-yl)-5-(5-(piperidin-1-ylmethyl)pyridin-3-yl)-1H-indazole], which IC50 is on record?
Its IC50 is 418 nM.

With `CCCC(=O)Nc1cncc(-c2ccc3[nH]nc(-c4nc5c(-c6ccoc6)cccc5[nH]4)c3c2)c1` [Compound 281, N-(5-(3-(4-(Furan-3-yl)-1H-benzo[d]imidazol-2-yl)-1H-indazol-5-yl)pyridin-3-yl)butyramide] as the molecule, how does the IC50 read?
Its IC50 is 25 nM.

Which IC50 does the source give for `O=C(Nc1cncc(-c2ccc3[nH]nc(-c4nc5c(-c6ccoc6)cccc5[nH]4)c3c2)c1)C1CC1` [Compound 283, N-(5-(3-(4-(Furan-3-yl)-1H-benzo[d]imidazol-2-yl)-1H-indazol-5-yl)pyridin-3-yl)cyclopropanecarboxamide] here?
The IC50 was 57 nM.
